Source: patent US9682995B2, “Amino-substituted isothiazoles” (BAYER PHARMA AKTIENGESELLSCHAFT, priority 2013, dated 2017)

Tests used:
[1] = tested on: spindle assembly checkpoint; assay: SAC-Formation - Nocodazole-Induced Assay; assay type: cell-based; conditions: Homo sapiens; HeLa cells, nocodazole 0.1 μg/ml, 24 h, phosphorylated histone H3 on serine 10
Excerpt: The spindle assembly checkpoint assures the proper segregation of chromosomes during mitosis. Upon entry into mitosis, chromosomes begin to condensate which is accompanied by the phosphorylation of histone H3 on serine 10. Dephosphorylation of histone H3 on serine 10 begins in anaphase and ends at early telophase. Accordingly, phosphorylation of histone H3 on serine 10 can be utilized as a marker of cells in mitosis. Nocodazole is a microtubule destabilizing substance. Paclitaxel is a microtubule stabilizing compound. Thus, nocodazole as well as paclitaxel interfere with microtubule dynamics and mobilize the spindle assembly checkpoint. […] The mitotic breakthrough can be detected by the decrease of cells with phosphorylation of histone H3 on serine 10. This decline is used as a marker to determine the capability of compounds of the present invention to induce a mitotic breakthrough. The typical morphological alteration of nuclei with a prematurely completed mitosis after SAC-inhibition can be monitored via image analysis routines supporting those findings.
The nocodazole and paclitaxel variations were used to focus on compounds that are capable of inhibiting a SAC induced by both microtubule destabilization as well as microtubule stabilization. When SAC inducing agents and compounds are given simultaneously, inhibitors that effectively block the SAC during formation or abrogation are identified. When cells are incubated with a SAC inducing agent and the SAC interfering compound is given after a defined time, inhibitors are identified that effectively block SAC abrogation.
Cultivated cells of the human cervical tumor cell line HeLa (ATCC CCL-2) were plated at a density of 1000 cells/well in a 1536-well microtiter plate in 2 μl PAA Ham's F12 Medium supplemented with 1% (v/v) glutamine, 1% (v/v) penicillin, 1% (v/v) streptomycin and 10% (v/v) fetal calf serum. After incubation overnight at 37° C., 10 μl/well nocodazole at a final concentration of 0.1 μg/ml were added to cells. Test compounds solubilized in dimethyl sulfoxide (DMSO) were added at various concentrations (0 μM, as well as in the range of 0.005 μM-20 μM; the final concentration of the solvent DMSO was 0.5% (v/v)). Cells were incubated for 24 h at 37° C. in the presence of test compounds in combination with nocodazole. Thereafter, cells were fixed in 4% (v/v) paraformaldehyde in phosphate buffered saline (PBS) at 4° C. overnight then permeabilized in 0.1% (v/v) Triton X™ 100 in PBS at room temperature for 20 min and blocked in 0.5% (v/v) bovine serum albumin (BSA) in PBS at room temperature for 15 min. After washing with PBS, 5 μl/well antibody solution (anti-phospho-histone H3 clone 3H10, FITC; Millipore, Cat #16-222; 1:1000 dilution) was added to cells, which were incubated for 2 h at room temperature. Afterwards, cells were washed with PBS and 5 μl/well solution of HOECHST 33342 dye (5 μg/ml) was added to cells and cells were incubated 15 min at room temperature in the dark. Cells were washed twice with PBS then covered with PBS and stored at 4° C. until analysis. Images were acquired with a PERKIN ELMER OPERA™ High-Content Analysis reader. Images were analyzed with image analysis software MetaXpress™ from Molecular devices utilizing the Mitotic Index application module. In this assay both labels HOECHST 33342 and phosphorylated Histone H3 on serine 10 were measured. HOECHST 33342 labels the DNA and is used to count the cell number. The staining of phosphorylated Histone H3 on serine 10 determines the number of mitotic cells. […] Otherwise cells were arrested at G2/M phase of the cell cycle progression. The raw assay data were further analyzed by four-parametric hill equation using Genedata's Assay Analyzer and Condoseo software.

HeLa = assay: Proliferation assay (crystal violet), HeLa; assay type: cell-based; conditions: Homo sapiens, 96 h, 4 days, read-out: Inhibition of proliferation IC50 HeLa
Description: Cultivated tumor cells (cells were ordered from ATCC, except HeLa-MaTu and HeLa-MaTu-ADR, which were ordered from EPO-GmbH, Berlin) were plated at a density of 1000 to 5000 cells/well, depending on the growth rate of the respective cell line, in a 96-well multititer plate in 200 μL of their respective growth medium supplemented 10% fetal calf serum. After 24 hours, the cells of one plate (zero-point plate) were stained with crystal violet (see below), while the medium of the other plates was replaced by fresh culture medium (200 μl), to which the test substances were added in various concentrations (0 μM, as well as in the range of 0.001-10 μM; the final concentration of the solvent dimethyl sulfoxide was 0.5%). The cells were incubated for 4 days in the presence of test substances. Cell proliferation was determined by staining the cells with crystal violet: the cells were fixed by adding 20 μl/measuring point of an 11% glutaric aldehyde solution for 15 minutes at room temperature. After three washing cycles of the fixed cells with water, the plates were dried at room temperature. The cells were stained by adding 100 μl/measuring point of a 0.1% crystal violet solution (pH 3.0). After three washing cycles of the stained cells with water, the plates were dried at room temperature. The dye was dissolved by adding 100 μl/measuring point of a 10% acetic acid solution. Absorption was determined by photometry at a wavelength of 595 nm. The change of cell number, in percent, was calculated by normalization of the measured values to the absorption values of the zero-point plate (=0%) and the absorption of the untreated (0 μm) cells (=100%). The IC50 values were determined by means of a 4 parameter fit.

Row | SMILES | IC50 [1] [nM] | IC50 (HeLa) [nM]
1 | COC(=O)c1cnc(Nc2snc(C)c2C(=O)Nc2ccc(OC)nc2)cn1 [Example 32, Methyl 5-({4-[(6-methoxypyridin-3-yl)carbamoyl]-3-methyl-1,2-thiazol-5-yl}amino)-pyrazine-2-carboxylate] | 510 | 8300
2 | Cc1nsc(Nc2cnc(C(=O)N(C)C)cn2)c1C(=O)Nc1ccc(F)c(F)c1 [Example 109, 5-({4-[(3,4-Difluorophenyl)carbamoyl]-3-methyl-1,2-thiazol-5-yl}amino)-N,N-dimethylpyrazine-2-carboxamide] | 1100 | 5000
3 | Cc1nsc(Nc2cncc(N(C)C)n2)c1C(=O)Nc1ccc(F)c(F)c1 [Example 105, N-(3,4-Difluorophenyl)-5-{[6-(dimethylamino)pyrazin-2-yl]amino}-3-methyl-1,2-thiazole-4-carboxamide] | 2000 | 10000
4 | CCc1ccnc(Nc2snc(C)c2C(=O)Nc2ccccc2CC)n1 [Example 17, N-(2-Ethylphenyl)-5-[(4-ethylpyrimidin-2-yl)amino]-3-methyl-1,2-thiazole-4-carboxamide] | 6000 | > 10000
5 | CCc1ccccc1NC(=O)c1c(C)nsc1Nc1nccc(OC)n1 [Example 16, N-(2-Ethylphenyl)-5-[(4-methoxypyrimidin-2-yl)amino]-3-methyl-1,2-thiazole-4-carboxamide] | 9800 | > 10000
6 | CCc1ccccc1NC(=O)c1c(C)nsc1Nc1ncccc1C#N [Example 8, 5-[(3-Cyanopyridin-2-yl)amino]-N-(2-ethylphenyl)-3-methyl-1,2-thiazole-4-carboxamide] | 4100 | > 10000
7 | Cc1nsc(Nc2ccn3nccc3n2)c1C(=O)Nc1ccc(F)c(F)c1 [Example 57, N-(3,4-Difluorophenyl)-3-methyl-5-(pyrazolo[1,5-a]pyrimidin-5-ylamino)-1,2-thiazole-4-carboxamide] | 520 | 2900
8 | COc1ccc(Oc2ccc(NC(=O)c3c(C)nsc3Nc3cc(C#N)ccn3)cn2)cc1 [Example 117, 5-[(4-Cyanopyridin-2-yl)amino]-N-[6-(4-methoxyphenoxy)pyridin-3-yl]-3-methyl-1,2-thiazole-4-carboxamide] | 270 | 3200
9 | CCc1ccccc1NC(=O)c1c(C)nsc1Nc1cc(NC)ncn1 [Example 15, N-(2-Ethylphenyl)-3-methyl-5-{[6-(methylamino)pyrimidin-4-yl]amino}-1,2-thiazole-4-carboxamide] | 16000 | > 10000
10 | CCc1ccccc1NC(=O)c1c(C)nsc1Nc1nccnc1C#N [Example 34, 5-[(3-Cyanopyrazin-2-yl)amino]-N-(2-ethylphenyl)-3-methyl-1,2-thiazole-4-carboxamide] | 950 | 6700
11 | CCc1ccccc1NC(=O)c1c(C)nsc1Nc1ncnc2sccc12 [Example 12, N-(2-Ethylphenyl)-3-methyl-5-(thieno[2,3-d]pyrimidin-4-ylamino)-1,2-thiazole-4-carboxamide] | 2000 | 9500
12 | CCc1ccccc1NC(=O)c1c(C)nsc1Nc1ccc(C#N)cn1 [Example 7, 5-[(5-Cyanopyridin-2-yl)amino]-N-(2-ethylphenyl)-3-methyl-1,2-thiazole-4-carboxamide] | 830 | 3000
13 | CCc1ccccc1NC(=O)c1c(C)nsc1Nc1nc(C)nc2ccccc12 [Example 35, N-(2-Ethylphenyl)-3-methyl-5-[(2-methylquinazolin-4-yl)amino]-1,2-thiazole-4-carboxamide] | 260 | 1200
14 | Cc1nsc(Nc2cncc(C(=O)N3CCOCC3)n2)c1C(=O)Nc1ccc(F)c(F)c1 [Example 107, N-(3,4-Difluorophenyl)-3-methyl-5-{[6-(morpholin-4-ylcarbonyl)pyrazin-2-yl]amino}-1,2-thiazole-4-carboxamide] | 340 | 4900
15 | COc1ccc(NC(=O)c2c(C)nsc2Nc2cnc3cc(Cl)ccc3n2)cn1 [Example 23, 5-[(6-Chloroquinoxalin-2-yl)amino]-N-(6-methoxypyridin-3-yl)-3-methyl-1,2-thiazole-4-carboxamide] | 280 | 1800
16 | COc1ccc(NC(=O)c2c(C)nsc2Nc2cnc3cccc(C)c3n2)cn1 [Example 22, N-(6-methoxypyridin-3-yl)-3-methyl-5-[(8-methylquinoxalin-2-yl)amino]-1,2-thiazole-4-carboxamide] | 210 | 1300

Now those with a lower IC50 [1], led by results:

Row | IC50 [1] [nM] | IC50 (HeLa) [nM] | SMILES
17 | 200 | 2100 | Cc1nsc(Nc2cc(C#N)ccn2)c1C(=O)Nc1ccc(Oc2ccccc2)nc1 [Example 111, 5-[(4-Cyanopyridin-2-yl)amino]-3-methyl-N-(6-phenoxypyridin-3-yl)-1,2-thiazole-4-carboxamide]
18 | 130 | 3300 | COc1ncc(NC(=O)c2c(C)nsc2Nc2cnc3ccccc3n2)cc1C [Example 121, N-(6-Methoxy-5-methylpyridin-3-yl)-3-methyl-5-(quinoxalin-2-ylamino)-1,2-thiazole-4-carboxamide]
19 | 160 | 1300 | CCc1ccccc1NC(=O)c1c(C)nsc1Nc1cnc2ccc(Cl)cc2n1 [Example 41, 5-[(7-Chloroquinoxalin-2-yl)amino]-N-(2-ethylphenyl)-3-methyl-1,2-thiazole-4-carboxamide]
20 | 61 | 130 | Cc1nsc(Nc2cnc3cc(F)ccc3n2)c1C(=O)Nc1ccc(F)c(F)c1 [Example 46, N-(3,4-Difluorophenyl)-5-[(6-fluoroquinoxalin-2-yl)amino]-3-methyl-1,2-thiazole-4-carboxamide]
21 | 18 | 2000 | Cc1nsc(Nc2cnc3ccccc3n2)c1C(=O)Nc1ccc(Oc2ccccc2)nc1 [Example 112, 3-Methyl-N-(6-phenoxypyridin-3-yl)-5-(quinoxalin-2-ylamino)-1,2-thiazole-4-carboxamide]
22 | 67 | 790 | Cc1nsc(Nc2cnccn2)c1C(=O)Nc1ccc(Cl)c(F)c1 [Example 56, N-(4-Chloro-3-fluorophenyl)-3-methyl-5-(pyrazin-2-ylamino)-1,2-thiazole-4-carboxamide]
23 | 34 | 240 | Cc1nsc(Nc2ccc(C#N)cn2)c1C(=O)Nc1ccc(Cl)c(F)c1 [Example 52, N-(4-Chloro-3-fluorophenyl)-5-[(5-cyanopyridin-2-yl)amino]-3-methyl-1,2-thiazole-4-carboxamide]
24 | 110 | 2000 | Cc1nsc(Nc2cc(C#N)ccn2)c1C(=O)Nc1ccc(F)c(F)c1 [Example 27, 5-[(4-Cyanopyridin-2-yl)amino]-N-(3,4-difluorophenyl)-3-methyl-1,2-thiazole-4-carboxamide]
